Experimental data: US20080021026A1, “BENZOTHIOPHENE INHIBITORS OF RHO KINASE” (priority 2006, published 2008)
pIC50: −log10 of the molar value. Where two headings read alike, the source gives them in different places.

Experiments:
[1] = biological target: T1, recombinant N-terminal GST-tagged human Rho kinase 1 (ROCK1, amino acids 1-535) (Homo sapiens, UniProt Q13464); test: In vitro Rho kinase assay (luciferase-based ATP consumption), ROCK1; assay type: biochemical
T1 construct: ROCK1, amino acids 1-535; purchased Invitrogen Inc. PV-3691
T1 sequence (Q13464 1-535): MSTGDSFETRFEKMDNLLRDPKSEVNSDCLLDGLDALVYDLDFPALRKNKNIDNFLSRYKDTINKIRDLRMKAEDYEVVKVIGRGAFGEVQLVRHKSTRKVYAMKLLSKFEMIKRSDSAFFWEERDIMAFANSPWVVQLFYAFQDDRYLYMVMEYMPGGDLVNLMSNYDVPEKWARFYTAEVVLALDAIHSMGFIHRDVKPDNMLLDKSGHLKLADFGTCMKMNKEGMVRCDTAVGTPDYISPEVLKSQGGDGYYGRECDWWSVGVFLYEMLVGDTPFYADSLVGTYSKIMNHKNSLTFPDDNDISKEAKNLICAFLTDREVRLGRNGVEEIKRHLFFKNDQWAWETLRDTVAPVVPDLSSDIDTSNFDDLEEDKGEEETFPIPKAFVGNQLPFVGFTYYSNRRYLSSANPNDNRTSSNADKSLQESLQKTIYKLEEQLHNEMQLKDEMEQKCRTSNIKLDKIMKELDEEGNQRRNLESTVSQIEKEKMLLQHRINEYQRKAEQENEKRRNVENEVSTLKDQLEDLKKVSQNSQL
Experimental: In Vitro Rho Kinase Assay
Rho kinase biochemical assays described below depend on firefly luciferase-based, indirect measurement of total ATP consumption by the kinase following incubation with substrate and ATP. 25 μl of Rho kinase assay buffer (20 mM Tris-HCL [pH 7.5], 1 mM MgCl2, 0.4 mM CaCl2, 0.15 mM EGTA, 0.1 mg/ml bovine serum albumin) containing 0.82 μg/ml of recombinant N-terminal GST-tagged human Rho kinase 1 (ROCK1, amino acids 1-535, Invitrogen Inc., cat. #PV-3691) or recombinant N-terminal GST-tagged human Rho kinase 2 (ROCK2, amino acids 1-552, Invitrogen Inc., cat #PV3759), 100 μg/ml S6 peptide substrate (related to amino acids 218-249 of the human 40S ribosomal protein S6, and suitable for ROCK1 or ROCK2, e.g. Upstate/Millipore Inc., cat #12-420), and 3 µM ATP are dispensed to wells of a 384 multi-well opaque plate. The plate is centrifuged for 30 seconds at approximately 200×g. 240 nl of test compound in DMSO is dispensed to each well by passive pin transfer. The lag phase of this in vitro kinase reaction permits addition of compounds soon after the reaction initiates. The reaction is allowed to incubate at 30° C. for 2 hours. The assay plates are sealed and maintained in a humidified environment. After 2 hours, 25 μl of easylite protein kinase assay reagent (Perkin-Elmer, Inc.) is dispensed. After an additional 10 minute incubation at room temperature (about 22° C.), luminescence activity is measured on a Molecular Devices Analyst multi-mode plate reader or other suitable plate reader. Kinase inhibition results in less ATP consumption, and therefore increased luminescence signal. Negative control activity is measured with DMSO lacking any test compound. The positive control is 2-methyl-1-(4-methylisoquinolin-5-ylsulfonyl)perhydro-1,4-diazepine hydrochloride (aka H-1152P, HCl salt). Efficacy is measured as a percentage of positive control activity. […] The designation NT means the cited example was not tested.

[2] = biological target: T2, recombinant N-terminal GST-tagged human Rho kinase 2 (ROCK2, amino acids 1-552) (Homo sapiens, UniProt O75116); test: In vitro Rho kinase assay (luciferase-based ATP consumption), ROCK2; assay type: biochemical
T2 construct: ROCK2, amino acids 1-552; purchased Invitrogen Inc. PV3759
T2 sequence (O75116 1-552): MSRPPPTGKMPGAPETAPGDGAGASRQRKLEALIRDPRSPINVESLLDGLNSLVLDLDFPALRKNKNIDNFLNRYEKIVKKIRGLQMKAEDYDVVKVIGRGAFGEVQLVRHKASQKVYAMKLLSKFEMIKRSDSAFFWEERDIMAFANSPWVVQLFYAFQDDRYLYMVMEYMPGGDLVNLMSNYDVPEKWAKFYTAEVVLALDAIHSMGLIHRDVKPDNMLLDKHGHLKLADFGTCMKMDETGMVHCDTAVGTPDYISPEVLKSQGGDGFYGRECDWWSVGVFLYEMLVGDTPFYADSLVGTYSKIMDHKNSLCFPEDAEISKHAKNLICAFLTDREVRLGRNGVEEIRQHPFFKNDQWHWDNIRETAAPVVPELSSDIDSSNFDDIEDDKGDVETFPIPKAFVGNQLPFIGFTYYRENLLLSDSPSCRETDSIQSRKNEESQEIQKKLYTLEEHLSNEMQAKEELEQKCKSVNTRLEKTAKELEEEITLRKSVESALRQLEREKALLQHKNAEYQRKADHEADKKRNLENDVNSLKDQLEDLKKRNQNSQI
Summary of the method: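 GST-ROCK2 (aa 1-552, 0.82 μg/ml) with 100 μg/ml S6 peptide and 3 µM ATP in Tris pH 7.5 buffer with MgCl2/CaCl2/EGTA/BSA, compound added just after reaction start, 2 h at 30 °C. Remaining ATP read by luciferase luminescence. Efficacy expressed as percentage of H-1152P positive control.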

[3] = ROCK1 IC50, recombinant GST-tagged human ROCK1, luciferase-based ATP consumption
[4] = ROCK2 IC50, recombinant GST-tagged human ROCK2, luciferase-based ATP consumption
[5] = recombinant GST-tagged human ROCK1, luciferase-based ATP consumption, read-out: ROCK1 IC50
[6] = recombinant GST-tagged human ROCK2, luciferase-based ATP consumption, read-out: ROCK2 IC50

| Compound | pIC50 [1, 5] | pIC50 [2, 6] | pIC50 [1, 3] | pIC50 [2, 4] |
| --- | --- | --- | --- | --- |
| Cc1c(-c2ccnc(N)n2)sc2ccc(CNC(=O)c3cc(Br)ccc3Cl)cc12 [Example 314, Cc1c(sc2ccc(CNC(═O)c3cc(Br)ccc3Cl)cc12)-c4ccnc(N)n4] | – | – | > 5.30 | > 5.30 |
| COC(=O)c1ccc(C(=O)Nc2cccc(Nc3ccc4sc(-c5ccnc(N)n5)c(C)c4c3)c2)cc1 [Example 62, Methyl 4-(3-(2-(2-aminopyrimidin-4-yl)-3-methylbenzo[b]thiophen-5-ylamino)phenylcarbamoyl)benzoate] | > 5.30 | > 5.30 | – | – |
| COc1cccc(C(N)c2ccc3sc(-c4ccnc(N)n4)c(C)c3c2)c1 (stereo not shown) [Example 32, 4-(5-(Amino(3-methoxyphenyl)methyl)-3-methylbenzo[b]thiophen-2-yl)pyrimidin-2-amine] | > 5.30 | > 5.30 | – | – |
| Cc1c(-c2ccnc(N)n2)sc2ccc(Nc3cccc(NC(=O)c4ccc(O)cc4)c3)cc12 [Example 61, N-(3-(2-(2-Aminopyrimidin-4-yl)-3-methylbenzo[b]thiophen-5-ylamino)phenyl)-4-hydroxybenzamide] | > 5.30 | > 5.30 | – | – |
| CCCCc1ccc(C(=O)NCc2ccc3sc(-c4ccnc(N)n4)c(C)c3c2)cc1 [Example 203, CCCCc1ccc(cc1)C(═O)NCc2ccc3sc(c(C)c3c2)-c4ccnc(N)n4] | < 5.30 | < 5.30 | – | – |
| Cc1c(-c2cc(N)nc(N)n2)sc2ccc(Cl)cc12 [Example 9, 6-(5-Chloro-3-methylbenzo[b]thiophen-2-yl)pyrimidine-2,4-diamine] | < 5.30 | < 5.30 | – | – |
| Cc1c(-c2ccnc(N)n2)sc2ccc(Nc3ccc4c(c3)OCO4)cc12 [Example 70, 4-(5-(Benzo[d][1,3]dioxol-5-ylamino)-3-methylbenzo[b]thiophen-2-yl)pyrimidin-2-amine] | > 5.30 | > 5.30 | – | – |
| CCN(CC)c1ccc(C(=O)NCc2ccc3sc(-c4ccnc(N)n4)c(C)c3c2)cc1 [Example 254, CCN(CC)c1ccc(cc1)C(═O)NCc2ccc3sc(c(C)c3c2)-c4ccnc(N)n4] | < 5.30 | > 5.30 | – | – |
| COc1cccc(Oc2ccc3sc(-c4ccnc(N)n4)c(C)c3c2)c1 [Example 81, 4-(5-(3-Methoxyphenoxy)-3-methylbenzo[b]thiophen-2-yl)pyrimidin-2-amine] | > 5.30 | > 5.30 | – | – |
| Cc1c(-c2ccnc(N)n2)sc2ccc(CNC(=O)C(Cc3ccc(O)cc3)NC(=O)OC(C)(C)C)cc12 (stereo not shown) [Example 328, Cc1c(sc2ccc(CNC(═O)C(Cc3ccc(O)cc3)NC(═O)OC(C)(C)C)cc12)c4ccnc(N)n4] | > 5.30 | > 5.30 | – | – |
| Cc1c(-c2ccnc(N)n2)sc2ccc(C(=O)N3CCC(N)C3)cc12 (stereo not shown) [Example 23, (2-(2-Aminopyrimidin-4-yl)-3-methylbenzo[b]thiophen-5-yl)(3-aminopyrrolidin-1-yl)methanone] | > 5.30 | > 5.30 | – | – |
| Cc1c(-c2ccnc(N)n2)sc2ccc(CNC(=O)c3cc(F)c(F)cc3Cl)cc12 [Example 252, Cc1c(sc2ccc(CNC(═O)c3cc(F)c(F)cc3Cl)cc12)-c4ccnc(N)n4] | – | – | > 5.30 | > 5.30 |
| Nc1nccc(-c2sc3ccc(Cl)cc3c2-c2ccccc2)n1 [Example 17, 4-(5-Chloro-3-phenylbenzo[b]thiophen-2-yl)pyrimidin-2-amine] | < 5.30 | < 5.30 | – | – |
| CCc1c(-c2ccnc(N)n2)sc2ccc(Cl)cc12 [Example 16, 4-(5-Chloro-3-ethylbenzo[b]thiophen-2-yl)pyrimidin-2-amine] | > 5.30 | > 5.30 | – | – |
| Cc1c(-c2ccnc(N)n2)sc2ccc(CNC(=O)c3cc([N+](=O)[O-])ccc3Cl)cc12 [Example 265, Cc1c(sc2ccc(CNC(═O)c3cc(ccc3Cl)[N+]([O−])═O)cc12)-c4ccnc(N)n4] | – | – | < 5.30 | > 5.30 |

More lines, main results first:

| pIC50 [1, 5] | pIC50 [2, 6] | Compound | pIC50 [1, 3] | pIC50 [2, 4] |
| --- | --- | --- | --- | --- |
| > 5.30 | > 5.30 | Cc1c(-c2ccnc(N)n2)sc2ccc(CNC(=O)c3c(F)c(F)c(F)c(F)c3F)cc12 [Example 276, Cc1c(sc2ccc(CNC(═O)c3c(F)c(F)c(F)c(F)c3F)cc12)-c4ccnc(N)n4] | – | – |
| < 5.30 | < 5.30 | COc1cc(C(=O)Nc2ccc3sc(-c4ccnc(N)n4)c(C)c3c2)cc(OC)c1OC [Example 73, N-(2-(2-Aminopyrimidin-4-yl)-3-methylbenzo[b]thiophen-5-yl)-3,4,5-trimethoxy benzamide] | – | – |
| < 5.30 | > 5.30 | COc1cccc(OC)c1C(=O)NCc1ccc2sc(-c3ccnc(N)n3)c(C)c2c1 [Example 220, COc1cccc(OC)c1C(═O)NCc2ccc3sc(c(C)c3c2)-c4ccnc(N)n4] | – | – |
| > 5.30 | < 5.30 | Cc1c(C(=O)NCc2ccc3sc(-c4ccnc(N)n4)c(C)c3c2)oc2ccccc12 [Example 197, Cc1c(oc2ccccc12)C(═O)NCc3ccc4sc(c(C)c4c3)-c5ccnc(N)n5] | – | – |
| > 5.30 | < 5.30 | Cc1c(-c2ccnc(N)n2)sc2ccc(CNC(=O)c3ccccc3Oc3ccccc3)cc12 [Example 283, Cc1c(sc2ccc(CNC(═O)c3ccccc3Oc4ccccc4)cc12)-c5ccnc(N)n5] | – | – |
| > 5.30 | < 5.30 | Cc1c(-c2ccnc(N)n2)sc2ccc(CNC(=O)c3cnc(O)c(Cl)c3)cc12 [Example 193, Cc1c(sc2ccc(CNC(═O)c3cnc(O)c(Cl)c3)cc12)-c4ccnc(N)n4] | – | – |
| < 5.30 | > 5.30 | CC(=O)c1ccccc1C(=O)NCc1ccc2sc(-c3ccnc(N)n3)c(C)c2c1 [Example 165, CC(═O)c1ccccc1C(═O)NCc2ccc3sc(c(C)c3c2)-c4ccnc(N)n4] | – | – |
| < 5.30 | > 5.30 | Cc1c(-c2ccnc(N)n2)sc2ccc(CNC(=O)Cc3cccc(O)c3)cc12 [Example 140, Cc1c(sc2ccc(CNC(═O)Cc3cccc(O)c3)cc12)-c4ccnc(N)n4] | – | – |
| < 5.30 | > 5.30 | CCOc1ccc2ccccc2c1C(=O)NCc1ccc2sc(-c3ccnc(N)n3)c(C)c2c1 [Example 291, CCOc1ccc2ccccc2c1C(═O)NCc3ccc4sc(c(C)c4c3)-c5ccnc(N)n5] | – | – |
| < 5.30 | > 5.30 | Cc1c(-c2ccnc(N)n2)sc2ccc(CNC(=O)C(C)O)cc12 (stereo not shown) [Example 98, C[C](O)C(═O)NCc1ccc2sc(c(C)c2c1)-c3ccnc(N)n3] | – | – |
| < 5.30 | > 5.30 | COc1cc(OC)cc(C(=O)NCc2ccc3sc(-c4ccnc(N)n4)c(C)c3c2)c1 [Example 221, COc1cc(OC)cc(c1)C(═O)NCc2ccc3sc(c(C)c3c2)-c4ccnc(N)n4] | – | – |
| > 5.30 | > 5.30 | COc1cc(C(=O)NCc2ccc3sc(-c4ccnc(N)n4)c(C)c3c2)cc(Cl)n1 [Example 235, COc1cc(cc(Cl)n1)C(═O)NCc2ccc3sc(c(C)c3c2)-c4ccnc(N)n4] | – | – |
| > 5.30 | > 5.30 | COc1cccc(N(C)c2ccc3sc(-c4ccnc(N)n4)c(C)c3c2)c1 [Example 78, 4-(5-((3-Methoxyphenyl)(methyl)amino)-3-methylbenzo[b]thiophen-2-yl)pyrimidin-2-amine] | – | – |
| > 5.30 | > 5.30 | Cc1c(-c2ccnc(N)n2)sc2ccc(CNC(=O)c3ncc[nH]3)cc12 [Example 103, Cc1c(sc2ccc(CNC(═O)c3ncc[nH]3)cc12)-c4ccnc(N)n4] | – | – |
| > 5.30 | > 5.30 | CC(=O)Oc1cccc(Cc2ccc3sc(-c4ccnc(N)n4)c(C)c3c2)c1 [Example 28, 3-((2-(2-Aminopyrimidin-4-yl)-3-methylbenzo[b]thiophen-5-yl)methyl)phenyl acetate] | – | – |
| > 5.30 | > 5.30 | Cc1c(-c2ccnc(N)n2)sc2ccc(Cc3cccc(C#N)c3)cc12 [Example 40, 3-((2-(2-Aminopyrimidin-4-yl)-3-methylbenzo[b]thiophen-5-yl)methyl)benzonitrile] | – | – |
| > 5.30 | < 5.30 | Cc1c(-c2ccnc(N)n2)sc2ccc(CNC(=O)C(Cc3ccccn3)NC(=O)OC(C)(C)C)cc12 (stereo not shown) [Example 326, Cc1c(sc2ccc(CNC(═O)[C](Cc3ccccn3)NC(═O)OC(C)(C)C)cc12)-c4ccnc(N)n4] | – | – |
